Results on six compounds are retold here after US20260217767A1, “NOVEL A4B7 THIOETHER PEPTIDE DIMER ANTAGONISTS” (Protagonist Therapeutics, Inc., priority 2014, published 2026).

*1 amine or outer side, *2 acyl side, *3 side chain or, on linkers, in order; H or OH if unused. Where a SMILES comes first, the peptide text is derived from it. Bridges are numbered along the chain shown (N, C = ends). Roman numbers before positions name the chains, in order. [ ]: non-standard residue; d: D form. Diglycolyl = O=C(COCC(=O)[*:2])[*:1]; NMeR = CN[C@@H](CCCNC(=N)N)C(=O)O; β3hE = N[C@@H](CCC(=O)O)CC(=O)O; X1 = O=C(c1ccccc1C[*:2])[*:1]; Pen = CC(C)(S)[C@H](N)C(=O)O A value given as a limit tells only on which side of the number the result lay.

Usually half-life stands for the time needed for the level to fall by half in the phase considered.

The nature of series [1]: Simulated Intestinal Fluid (SIF) Stability Assay. Format: in vitro ADME. The conditions noted are these: 37° C.; for half-life: simulated gi fluid, porcine pancreatin; for half-life at 22 μM: pig, simulated intestinal fluid (SIF) with 1% porcine pancreatin, pH 6.5, porcine pancreatin. A digest of the protocol: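 Peptide at 22 μM final was incubated at 37° C in blank FaSSIF pH 6.5 with 1% porcine pancreatin. Timed samples were quenched in acetonitrile/methanol/formic acid with internal standard and analysed by LC-MS/MS. Half-lives came from first-order exponential fits of percent remaining.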

A short description of series [2]: Simulated Gastric Fluid (SGF) Stability Assay. The class given is in vitro ADME. The conditions noted are these: pH 2, 37° C.; for half-life: simulated gi fluid, porcine pepsin; for half-life at 20 μM: pig, simulated gastric fluid (SGF) with porcine pepsin. The protocol:
Simulated Gastric Fluid (SGF) Stability Assays
Studies were carried out in simulated gastric fluid (SGF) to evaluate intestinal stability of the peptide molecules of the instant invention. SGF was prepared by adding 20 mg NaCl, 32 mg porcine pepsin (MP Biochemicals, catalog 02102599), and 70 μl HCl to 10 ml water (final pH=2). Aliquots of SGF (0.5 ml each) were pre-warmed at 37° C. To start the reaction, 1 μl of peptide stock solution (10 mM in DMSO) was added to 0.5 ml SGF and thoroughly mixed such that the final peptide concentration was 20 μM. The reactions were incubated at 37° C. with gentle shaking. At each time point (0, 15, 30, 60 min) 50 μl aliquots were removed and added to 200 μl acetonitrile containing 0.1% formic acid to quench the reaction. Samples are stored at 4° C. until the end of the experiment and centrifuged at 10,000 rpm for 5 minutes. Aliquots of the supernatant were removed, diluted 1:1 into distilled water containing internal standard, and analyzed by LCMS/MS. Percent remaining at each timepoint was calculated based on the peak area response ratio of test to compound to internal standard. Time 0 was set to 100%, and all later timepoints were calculated relative to time 0. Half-lives were calculated by fitting to a first-order exponential decay equation using GraphPad.

Series [3] has as its target T1, α4β1 (Homo sapiens, UniProt P05556+P13612).
T1 construct: purchased R&D Systems 5668-A4
Briefly: α4β1-VCAM Competition ELISA. The conditions noted are these: thioether peptide dimers, Table 7; read-out: ELISA A4B1. The class given is binding. The protocol:
α4β1-VCAM Competition ELISA
A Nunc MaxiSorp plate was coated with rh VCAM-1/CD106 Fc chimera (R&D #862-VC) at 400 ng/well in 50 ul per well in 1×PBS and incubated overnight at 4° C. The solution was removed by shaking and then blocked with 250 ul of 1% BSA in 1×PBS per well. The wells were then incubated at room temperature for 1 hr with shaking. Each well was then washed once with wash buffer (50 mM Tris-HCl pH7.6, 100 mM NaCL, 1 mM MnCl2 or MgCl2, 0.05% Tween-20). 25 ul of serial dilutions of peptides starting at 200 μM in assay buffer (Assay buffer: 50 mM Tris-HCl pH7.6, 100 mM NaCl, 1 mM MnCl2 or MgCl2, 0.05% Tween-20) was added to each well. Additionally, 25 μl of α4β1 (R&D Systems #5668-A4) was added to each well at a fixed concentration of 120 nM. The final peptide and α4β1 concentrations were 100 μM and 60 nM, respectively. The plates were then incubated at 37° C. for 2 hr. The solution was then removed by shaking and each well was washed three times with wash buffer. 50 ul of 9F10 antibody at 4 ug/ml (purified mouse anti-human CD49d, BD Bioscience Cat #555502) was then added to each well, and the plate was incubated at room temperature for Ihr with shaking. The solution was again removed by shaking, and each well was washed three times with wash buffer. 50 μl of peroxidase-conjugated AffiniPure Goat anti-mouse IgG (Jackson immune research cat #115-035-003) diluted in 1:5000 in assay buffer was added to each well. The plate was incubated at room temperature for 30 min with shaking. Each well was then washed 3 times with wash buffer. 100 ul of TMB was then added to each well and closely observe during developing time. The reaction was stepped with 2N H2SO4 and absorbance was read at 450 nm.

Series [4] deals with Jurkat E6.1 cells (Homo sapiens, UniProt P05556+P13612). Briefly: α4β1-VCAM Cell Adhesion Assay. Format: cell-based. The conditions noted are these: thioether peptide dimers, Table 7; read-out: Cell Adhesion A4B1. On the procedure:
α4β1-VCAM Cell Adhesion Assay
Jurkat E6.1 cells (Sigma #88042803) were cultured in RPMI 1640 HEPES medium (Invitrogen #22400-089) supplemented with 10% serum (Fetal Bovine Serum, Invitrogen #16140-071), 1 mM sodium pyruvate (Invitrogen #11360-070), 2 mM L-glutamine (Invitrogen #25030-081) and Penicillin-Streptomycin (Invitrogen #15140-122) at 100 units of penicillin and 100 μg of streptomycin per ml. The cells were washed two times in DMEM medium (ATCC #30-2002) supplemented with 0.1% BSA, 10 mM HEPES pH 7 and 1 mM MnCl2. The cells were re-suspended in supplemented DMEM medium at a density of 4×10^6 cells/ml.
A Nunc MaxiSorp plate was coated with rh VCAM-1/CD106 Fc chimera (R&D #862-VC) at 400 ng per well in 50 μl per well in 1×PBS and incubated at 4° C. overnight. The solution was then removed by shaking, blocked with 250 μl per well PBS containing 1% BSA, and incubated at 37° C. for 1 hr. The solution was removed by shaking. Peptides were diluted by serial dilution in a final volume of 50 μl per well (2× concentration). To each well, 50 μl of cells (200,000 cells) were added and the plate was incubated at 37° C., 5% CO2 for 30-45 min to allow cell adhesion. The wells were washed manually three times (100 μl per wash) with supplemented DMEM. After the final wash, 100 μl/well of supplemented DMEM and 10 ul/well of MTT reagent (ATTC cat #30-1010K) were added. The plate was incubated at 37° C., 5% CO2 for 2-3 hrs until a purple precipitate is visible. 100 ul of Detergent Reagent (ATTC cat #30-1010K) is added to each well. The plate was covered from the light, wrapped in Parafilm to prevent evaporation, and left overnight at room temperature in the dark. The plate was shaken for 5 min and the absorbance at 570 nm is measured. To calculate the dose response, the absorbance value of control wells not containing cells was subtracted from each test well.

Chain of Jurkat E6.1 cells (P13612 34-1032): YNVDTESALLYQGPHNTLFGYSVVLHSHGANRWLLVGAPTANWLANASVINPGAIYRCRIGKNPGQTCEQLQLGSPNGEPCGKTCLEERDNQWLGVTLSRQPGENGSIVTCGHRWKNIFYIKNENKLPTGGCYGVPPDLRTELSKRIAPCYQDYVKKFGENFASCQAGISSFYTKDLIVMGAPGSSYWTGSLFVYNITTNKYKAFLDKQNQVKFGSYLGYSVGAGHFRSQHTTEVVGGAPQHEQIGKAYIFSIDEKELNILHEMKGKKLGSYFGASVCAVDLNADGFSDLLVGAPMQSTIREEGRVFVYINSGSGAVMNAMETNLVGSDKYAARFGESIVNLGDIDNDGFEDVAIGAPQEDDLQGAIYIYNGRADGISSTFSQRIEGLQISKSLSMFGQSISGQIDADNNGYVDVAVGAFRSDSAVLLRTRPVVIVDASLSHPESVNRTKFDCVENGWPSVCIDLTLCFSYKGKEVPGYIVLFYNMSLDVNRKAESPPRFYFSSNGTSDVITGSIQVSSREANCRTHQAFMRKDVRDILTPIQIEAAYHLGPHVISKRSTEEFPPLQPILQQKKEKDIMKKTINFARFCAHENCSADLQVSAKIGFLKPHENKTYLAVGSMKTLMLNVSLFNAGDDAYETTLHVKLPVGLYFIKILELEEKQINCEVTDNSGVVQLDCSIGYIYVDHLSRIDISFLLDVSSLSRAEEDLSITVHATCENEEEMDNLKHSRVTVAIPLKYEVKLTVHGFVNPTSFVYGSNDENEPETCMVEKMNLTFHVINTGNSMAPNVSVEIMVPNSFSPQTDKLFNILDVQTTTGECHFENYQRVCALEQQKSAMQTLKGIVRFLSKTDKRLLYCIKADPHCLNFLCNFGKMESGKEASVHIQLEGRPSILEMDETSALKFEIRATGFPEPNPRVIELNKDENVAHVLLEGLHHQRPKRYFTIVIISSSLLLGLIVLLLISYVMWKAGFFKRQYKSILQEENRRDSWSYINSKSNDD
Chain of Jurkat E6.1 cells (P05556 21-798): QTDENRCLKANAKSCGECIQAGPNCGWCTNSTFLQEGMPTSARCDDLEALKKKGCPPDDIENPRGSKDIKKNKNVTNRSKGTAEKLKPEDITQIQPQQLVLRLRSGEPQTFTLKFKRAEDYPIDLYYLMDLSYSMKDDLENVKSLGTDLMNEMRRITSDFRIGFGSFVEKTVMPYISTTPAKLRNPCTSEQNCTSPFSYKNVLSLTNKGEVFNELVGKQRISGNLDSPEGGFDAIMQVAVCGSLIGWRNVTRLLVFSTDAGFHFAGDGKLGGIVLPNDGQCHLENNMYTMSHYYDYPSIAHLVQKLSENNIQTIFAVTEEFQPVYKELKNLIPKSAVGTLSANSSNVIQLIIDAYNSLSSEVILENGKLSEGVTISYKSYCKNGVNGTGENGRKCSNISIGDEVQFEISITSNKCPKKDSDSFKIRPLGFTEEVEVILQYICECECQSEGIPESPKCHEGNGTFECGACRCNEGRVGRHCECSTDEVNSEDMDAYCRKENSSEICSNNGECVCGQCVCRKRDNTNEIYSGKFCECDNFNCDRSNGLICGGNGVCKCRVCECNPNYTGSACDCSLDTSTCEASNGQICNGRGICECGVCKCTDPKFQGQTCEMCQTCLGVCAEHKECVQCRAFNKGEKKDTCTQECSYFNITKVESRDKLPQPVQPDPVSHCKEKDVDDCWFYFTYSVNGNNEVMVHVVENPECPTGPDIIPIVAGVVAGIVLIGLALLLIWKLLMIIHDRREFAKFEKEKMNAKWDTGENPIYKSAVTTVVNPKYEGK
T1 sequence (P13612 34-977 limits assumed): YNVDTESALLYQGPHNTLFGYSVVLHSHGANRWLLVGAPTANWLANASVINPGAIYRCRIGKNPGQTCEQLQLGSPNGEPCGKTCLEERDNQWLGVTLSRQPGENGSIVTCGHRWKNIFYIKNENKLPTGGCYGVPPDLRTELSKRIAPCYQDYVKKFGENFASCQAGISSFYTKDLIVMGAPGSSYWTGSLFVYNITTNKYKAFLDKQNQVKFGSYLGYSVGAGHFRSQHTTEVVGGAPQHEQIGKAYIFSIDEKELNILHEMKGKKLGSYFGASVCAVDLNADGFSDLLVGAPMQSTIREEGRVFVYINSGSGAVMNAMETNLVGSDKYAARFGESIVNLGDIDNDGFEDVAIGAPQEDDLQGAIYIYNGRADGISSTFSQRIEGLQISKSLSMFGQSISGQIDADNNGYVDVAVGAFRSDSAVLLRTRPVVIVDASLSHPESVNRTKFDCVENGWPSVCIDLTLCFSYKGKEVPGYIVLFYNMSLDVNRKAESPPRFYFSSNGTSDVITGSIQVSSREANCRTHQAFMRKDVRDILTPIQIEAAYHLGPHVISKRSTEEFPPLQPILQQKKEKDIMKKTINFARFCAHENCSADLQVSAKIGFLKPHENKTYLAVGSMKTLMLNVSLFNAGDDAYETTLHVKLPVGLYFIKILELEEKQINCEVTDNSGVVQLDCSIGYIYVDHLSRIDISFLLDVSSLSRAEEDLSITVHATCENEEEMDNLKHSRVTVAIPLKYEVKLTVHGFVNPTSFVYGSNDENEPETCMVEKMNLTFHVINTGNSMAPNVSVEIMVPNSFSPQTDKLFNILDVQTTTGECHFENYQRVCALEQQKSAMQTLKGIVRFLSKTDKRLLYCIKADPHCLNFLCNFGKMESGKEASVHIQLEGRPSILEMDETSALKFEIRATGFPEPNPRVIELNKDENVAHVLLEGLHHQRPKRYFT
T1 sequence (P05556 21-728 limits assumed): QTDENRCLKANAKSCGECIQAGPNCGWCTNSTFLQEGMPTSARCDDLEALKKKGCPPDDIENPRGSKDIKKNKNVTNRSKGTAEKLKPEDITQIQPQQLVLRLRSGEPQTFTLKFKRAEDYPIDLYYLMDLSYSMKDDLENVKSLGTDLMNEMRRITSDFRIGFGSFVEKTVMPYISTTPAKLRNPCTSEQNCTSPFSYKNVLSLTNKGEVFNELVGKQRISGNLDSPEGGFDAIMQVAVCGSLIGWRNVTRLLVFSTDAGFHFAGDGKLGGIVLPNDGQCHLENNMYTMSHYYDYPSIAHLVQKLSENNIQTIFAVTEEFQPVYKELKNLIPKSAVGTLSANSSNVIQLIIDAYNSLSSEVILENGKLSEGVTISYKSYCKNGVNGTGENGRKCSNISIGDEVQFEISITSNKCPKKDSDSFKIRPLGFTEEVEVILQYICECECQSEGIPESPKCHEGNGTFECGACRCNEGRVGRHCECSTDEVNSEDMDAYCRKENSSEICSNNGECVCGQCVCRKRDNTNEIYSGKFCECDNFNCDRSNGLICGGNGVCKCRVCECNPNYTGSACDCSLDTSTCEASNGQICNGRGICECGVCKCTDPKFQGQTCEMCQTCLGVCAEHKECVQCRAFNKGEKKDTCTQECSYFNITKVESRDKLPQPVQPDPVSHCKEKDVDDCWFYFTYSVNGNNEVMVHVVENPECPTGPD

In the case of `CC(C)C[C@@H]1NC(=O)[C@H]([C@@H](C)O)NC(=O)[C@H](CC(=O)O)NC(=O)[C@H](CO)NC(=O)[C@H](CCCNC(=N)N)N(C)C(=O)c2ccccc2CSC(C)(C)[C@@H](C(=O)N[C@@H](Cc2c[nH]c3ccccc23)C(=O)N[C@H](CCC(=O)O)C(N)=O)NC1=O` [compound 97] (HELM PEPTIDE1{[meR].S.D.T.L.[Pen].W.[dE].[am]}|CHEM1{[O=C(c1ccccc1C[*:2])[*:1]]}$PEPTIDE1,CHEM1,1:R1-1:R1|PEPTIDE1,CHEM1,6:R3-1:R2$$$V2.0), the half-life in series [1] (monomers, Table 6) was > 3 h; in series [2] (monomers, Table 6) it was > 3 h.

Take `CC(C)C[C@@H]1NC(=O)[C@H]([C@@H](C)O)NC(=O)[C@H](CC(=O)O)NC(=O)[C@H](CO)NC(=O)[C@H](CCCNC(=N)N)N(C)C(=O)c2ccccc2CSC(C)(C)[C@@H](C(=O)N[C@@H](Cc2c[nH]c3ccccc23)C(=O)N[C@H](CCC(=O)O)C(=O)N[C@H](CCCCN)C(N)=O)NC1=O` [compound 150] (HELM PEPTIDE1{[meR].S.D.T.L.[Pen].W.[dE].[dK].[am]}|CHEM1{[O=C(c1ccccc1C[*:2])[*:1]]}$PEPTIDE1,CHEM1,1:R1-1:R1|PEPTIDE1,CHEM1,6:R3-1:R2$$$V2.0): the half-life in series [1] (dimers, Table 7) was > 3 h; in series [2] (dimers, Table 7), > 3 h.

Consider `CC(C)C[C@@H]1NC(=O)[C@H]([C@@H](C)O)NC(=O)[C@H](CC(=O)O)NC(=O)[C@H](CO)NC(=O)[C@H](CCCNC(=N)N)N(C)C(=O)c2ccccc2CSC(C)(C)[C@@H](C(=O)N[C@@H](Cc2c[nH]c3ccccc23)C(=O)N[C@@H](CCC(=O)O)C(=O)N(C)[C@H](CCCCN)C(N)=O)NC1=O` [compound 152] (HELM PEPTIDE1{[meR].S.D.T.L.[Pen].W.E.[CN([C@H](CCCCN)C(=O)[*:2])[*:1]].[am]}|CHEM1{[O=C(c1ccccc1C[*:2])[*:1]]}$PEPTIDE1,CHEM1,1:R1-1:R1|PEPTIDE1,CHEM1,6:R3-1:R2$$$V2.0), for which the values for the IC50 in series [3] and in series [4] were 25 to 100 nM and > 100000 nM, respectively. Further, in series [1] (dimers, Table 7), the half-life at 22 μM is > 3 h. In addition, the half-life at 20 μM in series [2] (dimers, Table 7) is > 1 h.

As to `CC(C)C[C@@H]1NC(=O)[C@H]([C@@H](C)O)NC(=O)[C@H](CC(=O)O)NC(=O)[C@H](CO)NC(=O)[C@H](CCCNC(=N)N)N(C)C(=O)c2ccccc2CSC(C)(C)[C@@H](C(=O)N[C@@H](Cc2ccccc2)C(=O)N[C@@H](CCC(=O)O)CC(=O)N[C@H](CCCCN)C(N)=O)NC1=O` [compound 164] (HELM PEPTIDE1{[meR].S.D.T.L.[Pen].F.[O=C(O)CC[C@@H](CC(=O)[*:2])N[*:1]].[dK].[am]}|CHEM1{[O=C(c1ccccc1C[*:2])[*:1]]}$PEPTIDE1,CHEM1,1:R1-1:R1|PEPTIDE1,CHEM1,6:R3-1:R2$$$V2.0), the IC50 in series [3] was 25 to 100 nM; in series [4], > 100000 nM. Moreover, the half-life at 22 μM in series [1] (dimers, Table 7) is > 3 h. The half-life at 20 μM in series [2] (dimers, Table 7) was > 1 h.

Turning to `CC(C)C[C@@H]1NC(=O)[C@H]([C@@H](C)O)NC(=O)[C@H](CC(=O)O)NC(=O)[C@H](CO)NC(=O)[C@H](CCCNC(=N)N)N(C)C(=O)c2ccccc2CSC(C)(C)[C@@H](C(=O)N[C@@H](Cc2ccc(O)cc2)C(=O)N[C@@H](CCC(=O)O)CC(=O)N[C@H](CCCCNC(=O)COCC(=O)NCCCC[C@@H](NC(=O)C[C@H](CCC(=O)O)NC(=O)[C@H](Cc2ccc(O)cc2)NC(=O)[C@H]2NC(=O)[C@H](CC(C)C)NC(=O)[C@H]([C@@H](C)O)NC(=O)[C@H](CC(=O)O)NC(=O)[C@H](CO)NC(=O)[C@H](CCCNC(=N)N)N(C)C(=O)c3ccccc3CSC2(C)C)C(N)=O)C(N)=O)NC1=O` [compound 165] (I: [NMeR]SDTL[Pen]Y[β3hE][dK]-NH2 / II: [NMeR]SDTL[Pen]Y[β3hE][dK]-NH2; linker I:9-II:9 via Diglycolyl; linker I:N-I:6, II:N-II:6 via X1), in series [1] (dimers, Table 7), the half-life at 22 μM was > 3 h. Moreover, the half-life at 20 μM in series [2] (dimers, Table 7) was > 1 h.

In the case of `CC(C)C[C@@H]1NC(=O)[C@H]([C@@H](C)O)NC(=O)[C@H](CC(=O)O)NC(=O)[C@H](CO)NC(=O)[C@H](CCCNC(=N)N)N(C)C(=O)c2ccccc2CSC(C)(C)[C@@H](C(=O)N[C@@H](Cc2ccc(O)cc2)C(=O)N[C@H](CCC(=O)O)C(=O)N[C@H](CCCCN)C(N)=O)NC1=O` [compound 169] (HELM PEPTIDE1{[meR].S.D.T.L.[Pen].Y.[dE].[dK].[am]}|CHEM1{[O=C(c1ccccc1C[*:2])[*:1]]}$PEPTIDE1,CHEM1,1:R1-1:R1|PEPTIDE1,CHEM1,6:R3-1:R2$$$V2.0), the IC50 was 100 to 1000 nM in series [3] and > 100000 nM in series [4]. Further, the half-life at 22 μM in series [1] (dimers, Table 7) was > 3 h. In addition, the half-life at 20 μM in series [2] (dimers, Table 7) was > 3 h.
